Laboratory results: ChEMBL document CHEMBL4118051, “Scalemic Caged Xanthones Isolated from the Stem Bark Extract of Garcinia propinqua” (J Nat Prod, 2017)

What follows are compounds tested on HCT-116 (assay: Cytotoxicity against human HCT116 cells after 24 hrs by MTT assay). Conditions: HCT-116, 24 h.
Format: functional, cell-based

SMILES	IC50
COc1cccc2c1C(=O)c1c(O)c3c(c(O)c1C2=O)C[C@@](O)(C(=O)CO)C[C@@H]3O[C@H]1C[C@H](N)[C@H](O)[C@H](C)O1 [DOXORUBICIN]	9.74 µM
CC(C)=CCOc1cc(O)c2c(c1)OC13C(=CC4CC1C(C)(C)OC3(CC=C(C)C)C4=O)C2=O (mixture of isomers)	23.9 µM
CO[C@H]1[C@@H]2C[C@H]3C(C)(C)O[C@@](/C=C/C(C)(C)O)(C2=O)[C@@]32Oc3c(c(O)cc4c3C(C)(C)C(C)O4)C(=O)[C@H]12 (stereo partly drawn)	14.2 µM
